Source: patent US5821353A, “DNA encoding 1,3 beta-D glucan synthase subunits” (Merck & Co., Inc., priority 1996, dated 1998)
≈ marks a conversion by molar mass, not a printed value. *1 amine or outer side, *2 acyl side, *3 side chain or, on linkers, in order; H or OH if unused. Where a SMILES comes first, the peptide text is derived from it. Bridges are numbered along the chain shown (N, C = ends). [ ]: non-standard residue; d: D form. The star is where a group is joined. ξ: configuration not given here. Orn(4R-OH,5R-OH) = O=C([C@H](C[C@@H](O)[C@@H](O)N[*:3])N[*:1])[*:2]; hTyr(3S-OH,4S-OH) = N[C@H](C(=O)O)[C@H](O)[C@@H](O)c1ccc(O)cc1; ξOrn(4,5-diOH) = O=C(C(CC(O)C(O)N[*:3])N[*:1])[*:2]; ξhTyr(βξ-OH,γξ-OH) = NC(C(=O)O)C(O)C(O)c1ccc(O)cc1; Pro(3S-OH,4S-Me) = C[C@H]1CN[C@H](C(=O)O)[C@H]1O; Benzoyl(4-octyloxy) = CCCCCCCCOc1ccc(C(=O)*)cc1; ξPro(3ξ-OH,4ξ-Me) = CC1CNC(C(=O)O)C1O; Palmitoyl = CCCCCCCCCCCCCCCC(=O)*; Hyp = O=C(O)[CH]1C[CH](O)CN1

Columns and labels:
[1] = test system: S. cerevisiae YFK532-7C (fks1-1); experiment: primary screen, zone size on agar; format: cell-based, Saccharomyces cerevisiae; conditions: 20 ng FK506, 10 mcg CsA, 10 mcg L733,560, 20 mcg aculeacin, 20 mcg papulacandin, 48 h
Description: (§1) Each strain is grown at 28°-30° C. in YPAD/10 mM CaCl2 medium with shaking at 220 rpm (to mid or late log phase). The cultures are diluted 1:10 with water, and the OD values of the dilutions are measured at 600 nm (against a blank of YPAD/10 mM CaCl2 similarly diluted 1:10 in water). The OD value is multiplied by 10 to estimate the OD of the culture. Portions (100 ml) of YPAD/10 mM CaCl2 medium containing 1.5% agar, equilibrated at 45° C. in a water bath, are seeded with culture such that the final cell density in the agar would have an OD value of 0.015 (i.e., 3×10^6 cfu/ml; a sample calculation is provided below). The seeded agar is poured into 500 cm^2 Nunc plates. Once the agar plates have solidified, 10 mcL aliquots of samples containing test compounds, such as fermentation extracts, are dissolved in water, 100% methanol or ethanol, or up to 50% DMSO and are placed on each member of the two-plate set in 11 by 8 arrays.
(§2) The plates are incubated for 48 h at 28°-30° C. Diameters of the zones are read to the outermost edge and recorded in mm. The clarity of the zone is reported as clear (no designation), hazy (h), or very hazy (vh). Very hazy zones are best seen by viewing the plate under an elevated light placed between the assay dish and a dark wall.

[2] = test system: S. cerevisiae YFK007 (wild type); experiment: primary screen, zone size on agar; format: cell-based, Saccharomyces cerevisiae; conditions: 20 ng FK506, 10 mcg CsA, 10 mcg L733,560, 20 mcg aculeacin, 20 mcg papulacandin, 48 h
Description: as §1, §2

[3] = test system: S. cerevisiae YFK798 (fks1-1 + CN); experiment: primary screen, zone size on agar (calcineurin counter screen); format: cell-based, Saccharomyces cerevisiae; conditions: 20 ng FK506, 10 mcg CsA, 10 mcg L733,560, 20 mcg aculeacin, 20 mcg papulacandin, 48 h
Description: Counter screening strains were devised for identifying calcineurin inhibitors. Overexpression of yeast calcineurin in the fks1-1 mutant (strain YFK798) constitutes the most general of these. […] Glucan synthase inhibitors show neither effect and thus can be distinguished from calcineurin inhibitors.
as §1, §2

S. cerevisiae R560-1C = experiment: secondary screen, zone size on agar; format: cell-based, Saccharomyces cerevisiae; conditions: 20 ng FK506, 10 mcg CsA, 10 mcg L733,560, 20 mcg aculeacin, 20 mcg papulacandin
Description: (§3) For positively identifying glucan synthase inhibitors, screening with strain R560-1C and its parent W303-1A was instituted in a manner identical to that described for calcineurin inhibitors. Complete loss of a zone, or marked reduction in size, on R560-1C versus W303-1A indicates a glucan synthase inhibitor. No zones are seen with calcineurin inhibitors using this pair of strains.
as §1, §2

S. cerevisiae W303-1A = experiment: secondary screen, zone size on agar; format: cell-based, Saccharomyces cerevisiae; conditions: 20 ng FK506, 10 mcg CsA, 10 mcg L733,560, 20 mcg aculeacin, 20 mcg papulacandin
Description: as §3, §1, §2

[4] = test system: S. cerevisiae fks1-1 PCR1 YFK0688-14B; experiment: MIC assay; format: cell-based, Saccharomyces cerevisiae; conditions: less than 10% growth of no-drug control, 42 hours, 28° C.
Description: (§4) The sensitivities of pcr1(fks2-1) fks1-1 and pcr1(fks2-1) FKS1 strains to L-733,560, L-636,947 (Aculeacin), and L-687,781 (Dihydropapulocandin) were determined in MIC assays. Briefly, strains were grown to stationary phase in 5.0 ml of liquid YPAD medium. MY2256 precultures were grown in liquid YPAD10Ca. MIC assays were performed in flat well microtiter plates in triplicate. Each well of the microtiter plate was filled with 100 mcL of YPAD medium. To the first well, 100 mcL of a 4× solution of drug in YPAD medium was added. To serve as a control, a stock solution of […] of YPAD was made. 100 mcL of this solution was added to the initial well for strains grown in the presence of solvent but the absence of drug. Two-fold serial dilutions of the drug were performed down the plate.
(§5) Cultures were diluted to 5×10^5 cells/ml in YPAD (1 OD660 =3.3×10^7 cells/ml). 100 mcL of diluted culture was added to each well, resuspended, and incubated at 28° C. After 42 hours, cultures were resuspended and cells densities measured in an SLT Laboratories 340 ATTC microtiter plate reader. The MICs concentrations presented in the table below represent the concentrations of drug that result in less than 10% growth of the strain grown in the absence of drug.

[5] = test system: S. cerevisiae fks1-1 pcr1 (fks2-1): MY2256, YFK0996-11B, MY2259, MY2260; experiment: MIC assay; format: cell-based, Saccharomyces cerevisiae; conditions: less than 10% growth, 42 hours
Description: as §4, §5

[6] = test system: S. cerevisiae wild type YFK0005; experiment: MIC assay; format: cell-based, Saccharomyces cerevisiae; conditions: less than 10% growth of no-drug control, 42 hours, 28° C.
Description: as §4, §5

[7] = test system: S. cerevisiae FKS1 pcr1 (fks2-1): MY2257, MY2258; experiment: MIC assay; format: cell-based, Saccharomyces cerevisiae; conditions: less than 10% growth, 42 hours
Description: as §4, §5

[8] = test system: S. cerevisiae R560-1 / R560-1C (fks1-2); experiment: liquid MIC assay of resistant clone; format: cell-based, Saccharomyces cerevisiae
Description: Strain W303-1A was transformed by the spheroplast method (MYG) with yeast genomic libraries obtained from D. Botstein (1982. Cell, 28:145-154). Transformants selected on uracil dropout medium were pooled and stored at -80° C. in 20% glycerol. After determining the titer (colony forming units(CFU)/ml), aliquots of the stocks were spread at .congruent.5×10^3 CFU per plate onto uracil dropout medium containing the semisynthetic echinocandin L-733,560 at 0.5 mcg/ml or 1.25 mcg/ml. This concentration of L-733,560 is sufficient to select for resistant clones. Twenty-seven drug resistant colonies were isolated. […] Briefly, L-733,560 was serially diluted across the wells of a sterile microtiter plate such that the concentration in each row ranged from 16 to 0.03 mcg/ml in 2-fold increments after an equal volume of a cell suspension in liquid uracil dropout medium was added. After 24 h at 30° C., plates were read in a spectrophotometer at a wavelength of 600 nm, and the percent of control growth in each well (relative to a no-drug control well) was calculated. […]
Because this strain was isolated as a transfornant from the genomic library, it was expected that resistance would be due to the gene residing on the plasmid contained in R560-1. […] R560-1C was mated to the wild type strain W303-1B, sporulated, dissected, and the sensitivity to L-733,560 quantitated by liquid MIC assay. […]

[9] = test system: S. cerevisiae YFK0931-07B; experiment: MIC assay; format: cell-based; conditions: Saccharomyces cerevisiae, YFK093107B, 42 h; YFK0931-07B; read-out: MIC
Description: as §4
(§6) Cultures were diluted to 5×10^5 cells/ml in YPAD (1 OD660 =3.3×10^7 cells/ml). 100 mcL of diluted culture was added to each well, resuspended, and incubated at 28° C. After 42 hours, cultures were resuspended and cells densities measured in an SLT Laboratories 340 ATTC microtiter plate reader.

S. cerevisiae MY2256 = experiment: MIC assay; format: cell-based; conditions: Saccharomyces cerevisiae, MY2256, 42 h
Description: as §4, §6

CCCCCCCCCCCCCCCC(=O)NC1CC(O)C(O)NC(=O)C2C(O)C(C)CN2C(=O)C(C(C)O)NC(=O)C(C(O)C(O)c2ccc(O)cc2)NC(=O)C2CC(O)CN2C(=O)C(C(C)O)NC1=O [L-636,947, aculeacin] (Palmitoyl-[ξOrn(4,5-diOH)]T[Hyp][ξhTyr(βξ-OH,γξ-OH)]T[ξPro(3ξ-OH,4ξ-Me)]; lactam 1-C; configuration not given here)
Primary Screen Zone size (mm) [1]: 27-30 mm | Primary Screen Zone size (mm) [2]: 22-24 mm | Primary Screen Zone size (mm) [3]: 27-30 mm | Secondary Screen Zone size (mm) (S. cerevisiae R560-1C): 17-20 mm | Secondary Screen Zone size (mm) (S. cerevisiae W303-1A): 18-22 mm | MIC [4]: 0.5 µg/mL (≈ 0.483 µM) | MIC [5]: > 40 µg/mL | MIC [6]: 1 µg/mL (≈ 0.965 µM) | MIC [7]: > 40 µg/mL

CCCCCCCCOc1ccc(C(=O)N[C@H]2C[C@@H](O)[C@@H](O)NC(=O)[C@@H]3[C@@H](O)[C@@H](C)CN3C(=O)[C@H]([C@@H](C)O)NC(=O)[C@H]([C@H](O)[C@@H](O)c3ccc(O)cc3)NC(=O)[C@@H]3C[C@@H](O)CN3C(=O)[C@H]([C@@H](C)O)NC2=O)cc1 [L-646,991, cilofungin] ({Benzoyl(4-octyloxy)}-[Orn(4R-OH,5R-OH)]T[Hyp][hTyr(3S-OH,4S-OH)]T[Pro(3S-OH,4S-Me)]; lactam 1-C)
resistance phenotype in liquid MIC assay [8]: resistance phenotype

CO[C@H]1C[C@@H]2CC[C@@H](C)[C@@](O)(O2)C(=O)C(=O)N2CCCC[C@H]2C(=O)O[C@H]([C@H](C)C[C@@H]2CC[C@@H](O)[C@H](OC)C2)CC(=O)[C@H](C)/C=C(\C)[C@@H](O)[C@@H](OC)C(=O)[C@H](C)C[C@H](C)/C=C/C=C/C=C/1C [Rapamycin, rapamycin]
MIC [9]: 0.007 µg/mL (≈ 0.00766 µM) | MIC (S. cerevisiae MY2256): 0.007 µg/mL (≈ 0.00766 µM)
